Peptide text beside a SMILES is read from it.
Experiments:
HeLa cells = assay: Resazurin-based cytotoxicity assay; type: cell-based; settings: serum-free medium, 24 h, triplicate (n = 3)
Procedure: Cytotoxicity of the peptides to HeLa cells were investigated using a resazurin‐based cytotoxicity assay (Sigma Aldrich). For this, 14,000 HeLa cells were seeded in a 96‐well plate and grown in complete medium at 37°C to 80%–90% subconfluency. Cells were treated with different peptide dilutions in serum‐free medium at 37°C for 24 h. Untreated cells served as negative control and cells treated with 70% ethanol for 10 min as positive control. Cells were washed with PBS and subsequently incubated with a 10% resazurin solution in serum‐free medium for ~1 h. To determine the viability of the cells, the fluorescence was measured at 595 nm after excitation at 550 nm using a Tecan infinite M200 plate reader.

rFTase = target: T1, rFTase (Rattus norvegicus, UniProt Q02293+Q04631); assay: Mass spectrometry-based farnesylation assay (rFTase); type: biochemical; settings: each peptide 18 h at 37°C with rFTase and FPP, LC-ESI-MS
T1 construct: purchased Jena Bioscience PR-102
Procedure: […] CaaX‐1 or scrambled control was incubated with 50‐nM recombinantly expressed hFTase or rFTase (Jena Bioscience, Cat#PR‐102) and 10‐μM farnesyl pyrophosphate (FPP) in reaction buffer (50‐mM Tris HCl pH 7.5, 5‐mM DTT, 5‐mM MgCl2, 10‐μM ZnCl2, and 0.2% n‐octyl‐beta‐D‐glucopyranoside) at 37°C for 18 h. Afterwards, the reaction mixture was desalted via C18 ZipTips (Merck Millipore). For this, ZipTips were washed with ACN and equilibrated in 0.1% FA in H2O. Then, the column was loaded with the reaction solution and subsequently washed with 0.1% FA in H2O and 5% MeOH in H2O each supplemented with 0.1% FA. Elution was performed using 50% ACN with 0.1% FA, and the eluted solution was analyzed by RP‐HPLC using a linear gradient of 10%–60% ACN in H2O with 0.1% FA or TFA using a flow rate of 0.6 or 1.0 mL/min, respectively, and by ESI‐MS analysis (LTQ‐XL, Thermo Scientific, Waltham, Massachusetts, USA).

Row | farnesylation by rFTase (CaaX-1 versus scrambled controls) (rFTase) | SMILES | cytotoxicity to HeLa cells at 100 μM (HeLa cells)
1 | lack of catalytic conversion | CC[C@H](C)[C@H](NC(=O)[C@H](CS)NC(=O)[C@H](CCCCN)NC(=O)[C@H](CCCCN)NC(=O)[C@H](CC(N)=O)NC(=O)[C@H](CCCNC(=N)N)NC(=O)[C@H](Cc1ccccc1)NC(=O)[C@H](CCCCN)NC(=O)[C@H](CCCNC(=N)N)NC(=O)[C@H](CC(C)C)NC(=O)[C@H](CCCNC(=N)N)NC(=O)[C@H](CCCCN)NC(=O)[C@H](CCCNC(=N)N)NC(=O)[C@H](CC(C)C)NC(=O)CN)C(=O)N[C@@H](CCCCN)C(=O)N[C@H](C(=O)N[C@@H](CCSC)C(=O)N[C@H](C(=O)N[C@@H](CO)C(=O)O)[C@@H](C)O)C(C)C [CaaX‐1hscr] (H-GLRKRLRKFRNKKCIKVMTS-OH) | slight toxicity
2 | lack of catalytic conversion | CC[C@H](C)[C@H](N)C(=O)N[C@H](C(=O)N[C@@H](Cc1ccccc1)C(=O)N[C@@H](CCCNC(=N)N)C(=O)N[C@@H](CCCCN)C(=O)N[C@@H](CCCCN)C(=O)N[C@@H](CC(C)C)C(=O)N[C@@H](CCCNC(=N)N)C(=O)N[C@@H](CCCCN)C(=O)N[C@@H](CCCCN)C(=O)N[C@@H](CS)C(=O)N[C@@H](CO)C(=O)N[C@@H](CCCCN)C(=O)NCC(=O)N[C@@H](CC(C)C)C(=O)N[C@H](C(=O)N[C@@H](CCCNC(=N)N)C(=O)N[C@@H](CCCNC(=N)N)C(=O)N[C@@H](CC(N)=O)C(=O)N[C@@H](CCSC)C(=O)O)C(C)C)[C@@H](C)O [scrCaaX‐1] (H-ITFRKKLRKKCSKGLVRRNM-OH) | –

Reference: paper PMC11893521, “Examining Farnesyltransferase Interaction With Cell‐Permeable CaaX Peptides and the Role of the CaaX Motif in Biological Activity” (Journal of Peptide Science, 2025)
